Results: US8461082B2, “Herbicidal composition and method for removing unwanted foliage” (priority 2006, dated 2013)

What was measured:
[1] = Examples 4-6 mixing in 1000 L commercial spray tank, dissolution and pH; assay type: physicochemical
Excerpt: A commercial “Silvan” Trailing Boom Spray fitted with a 1000 L tank was used for this experiment. The boom was 10 m wide.
The glyphosate material used was glyphosate acid (purity 95%) with a particle size where 95% can pass through a 1.2 mm sieve.
The spray tank was filled with 900 L of water. The recirculation or agitation system was driven by a power take off (“PTO”) from the tractor. The recirculation system consisted of a wet boom, submerged at the base of the tank with outlets to one side of the tank's midline. […] This is acceptable agitation by commercial spray boom standards.
With the PTO operating, a blend made from 0.979 kg of the surfactant Empigen BB and 1.57 kg of the monoethanolamine was poured into the tank and allowed to disperse for one minute.
4.26 kg of glyphosate acid was then tipped into the water.
A commercial “Silvan” brand Trailing Boom Spray fitted with a 1000 L tank was use for this experiment. The boom was 10 m wide.
Glyphosate acid (purity 95%) with a particle size where 95% can pass through a 0.5 mm sieve.
The spray tank was filled with 900 L of water. The recirculation or agitation system was driven by a PTO from the tractor. The recirculation system consisted of a wet boom at the base of the tank with outlets to one side of the tank's midline. […] This is adequate agitation by commercial spray boom standards.
4.26 kg of the milled glyphosate acid was tipped into the water.
A commercial “Silvan” Trailing Boom Spray fitted with a 1000 L tank was use for this experiment. The boom was 10 m wide.
Glyphosate acid (purity 95%) with a particle size where 95% can pass through a 1.2 mm sieve but not through a 0.5 mm sieve.
A blend made from 0.979 kg of the surfactant Empigen BB, a cocobetaine surfactant, and 1.57 kg of the monoethanolamine (MEA) was poured into the tank and allowed to disperse for one minute. A sample of water was collected and analysed for pH.
A plastic mesh insert with holes of 3-4 mm diameter was fitted into the mouth of the tank and 4.26 kg of glyphosate acid was tipped into the insert. […]
A sample of water was then taken and analysed for pH.

[2] = Dissolution of glyphosate acid on stirring into diluted Alkali Surfactant Blend in 20 L buckets; assay type: physicochemical; conditions: bucket, at the higher concentrations
Experimental: Approximately 13 L of water was added to each of five 20 litre (“L”) plastic buckets (Table 1). Pack 1 was made by taking 37.5 parts monoethanolamine (“MEA”) and 25.3 parts of a cocobetaine surfactant called Empigen BB from Huntsman Chemical Company Australia. Pack 1 was also called the Alkaline-Surfactant Blend in this and later examples.
Glyphosate acid technical material with a purity of 95% and a particle size smaller than 1 mm (Pack 2) was then added to the buckets at the rates given in Table 1 and stirred with a plastic paddle until all the acid disappeared. This took 3-5 minutes at the higher concentrations.
Approximately 13 L of water was added to seven 20 L plastic buckets (Table 5). A blend of 37.5 parts MEA and 25.3 parts of the cocobetain surfactant Empigen BB was made to form the Alkali Surfactant Blend (Pack 1). Glyphosate acid (Pack 2) with a purity of 95% was then added to the buckets at the rates given in Table 5 and stirred with a plastic paddle until all the acid disappeared. This took 3-5 minutes at the higher concentrations.
Approximately 13 L of water was added to seven 20 L plastic buckets (Table 22). The Alkali Surfactant Blend of monoethanolamine and the cocamidopropyl betaine (Pack 1) was then added to the water at the rates given in the Table. […]

Structure (SMILES): O=C(O)CNCP(=O)(O)O [glyphosate acid, N-phosphonomethyl glycine]
- dissolution of glyphosate acid in spray tank ([1]; Example 4: 4.26 kg acid (95% passes 1.2 mm sieve) tipped into 900 L water with MEA/Empigen BB blend, agitated, no mesh insert): almost all disappeared over the next 5 minutes
- time for glyphosate acid to disappear in spray tank ([1]; Example 5: 4.26 kg milled acid (95% passes 0.5 mm sieve) tipped into 900 L water with MEA/Empigen BB blend, agitated, no mesh insert): ≤ 10 min
- undissolved acid in spray tank after washing through mesh ([1]; Example 6: 4.26 kg acid washed through 3-4 mm plastic mesh insert over 1-2 minutes into 900 L water with MEA/Empigen BB blend): no evidence of undissolved acid
- time stirred until all the acid disappeared ([2]; about 13 L water with MEA/Empigen BB blend): 3 to 5 min
- time stirred until all the acid disappeared ([2]; about 13 L water with MEA/cocamidopropyl betaine blend): approximately 3 minutes
